Key:
MDA-MB-468 = test: Growth inhibition of human MDA-MB-468 cells assessed as cell growth at 1 uM incubated for 48 hrs by sulforhodamine B assay relative to control; assay type: functional; details: MDA-MB-468, 48 h, read-out: Activity
T47D = test: Growth inhibition of human T47D cells assessed as cell growth at 10 uM incubated for 48 hrs by sulforhodamine B assay relative to control; assay type: functional; details: read-out: Activity
K562 [1] = test: Growth inhibition of human K562 cells assessed as cell growth at 100 uM incubated for 48 hrs by sulforhodamine B assay relative to control; assay type: functional; details: K562, 48 h, read-out: Activity
SK-MEL-2 [2] = test: Growth inhibition of human SK-MEL-2 cells assessed as cell growth at 0.005 uM incubated for 48 hrs by sulforhodamine B assay relative to control; assay type: functional; details: SK-MEL-2, 48 h, read-out: Activity
SK-OV-3 = test: Growth inhibition of human SKOV3 cells assessed as cell growth at 0.5 uM incubated for 48 hrs by sulforhodamine B assay relative to control; assay type: functional; details: SK-OV-3, 48 h, read-out: Activity
OVCAR-8 [3] = test: Growth inhibition of human OVCAR8 cells assessed as cell growth at 0.005 uM incubated for 48 hrs by sulforhodamine B assay relative to control; assay type: functional; details: OVCAR-8, 48 h, read-out: Activity
OVCAR-5 = test: Growth inhibition of human OVCAR5 cells assessed as cell growth at 0.005 uM incubated for 48 hrs by sulforhodamine B assay relative to control; assay type: functional; details: OVCAR-5, 48 h, read-out: Activity
K562 [4] = test: Growth inhibition of human K562 cells assessed as cell growth at 0.005 uM incubated for 48 hrs by sulforhodamine B assay relative to control; assay type: functional; details: K562, 48 h, read-out: Activity
PC-3 = test: Growth inhibition of human PC3 cells assessed as cell growth at 0.005 uM incubated for 48 hrs by sulforhodamine B assay relative to control; assay type: functional; details: PC-3, 48 h, read-out: Activity
OVCAR-8 [5] = test: Growth inhibition of human OVCAR8 cells assessed as cell growth at 0.5 uM incubated for 48 hrs by sulforhodamine B assay relative to control; assay type: functional; details: OVCAR-8, 48 h, read-out: Activity
SK-MEL-5 = test: Growth inhibition of human SK-MEL-5 cells assessed as cell growth at 0.005 uM incubated for 48 hrs by sulforhodamine B assay relative to control; assay type: functional; details: SK-MEL-5, 48 h, read-out: Activity
A498 = test: Growth inhibition of human A498 cells assessed as cell growth at 0.05 uM incubated for 48 hrs by sulforhodamine B assay relative to control; assay type: functional; details: A498, 48 h, read-out: Activity
SNB-75 = test: Growth inhibition of human SNB75 cells assessed as cell growth at 0.005 uM incubated for 48 hrs by sulforhodamine B assay relative to control; assay type: functional; details: SNB-75, 48 h, read-out: Activity
OVCAR-8 [6] = test: Growth inhibition of human OVCAR8 cells assessed as cell growth at 50 uM incubated for 48 hrs by sulforhodamine B assay relative to control; assay type: functional; details: OVCAR-8, 48 h, read-out: Activity
NCI-H23 = test: Growth inhibition of human NCI-H23 cells assessed as cell growth at 0.05 uM incubated for 48 hrs by sulforhodamine B assay relative to control; assay type: functional; details: NCI-H23, 48 h, read-out: Activity
A549 = test: Growth inhibition of human A549/ATCC cells assessed as cell growth at 0.005 uM incubated for 48 hrs by sulforhodamine B assay relative to control; assay type: functional; details: A549, 48 h, read-out: Activity
SF-268 [7] = test: Growth inhibition of human SF268 cells assessed as cell growth at 50 uM incubated for 48 hrs by sulforhodamine B assay relative to control; assay type: functional; details: SF-268, 48 h, read-out: Activity
HCT-116 = test: Growth inhibition of human HCT116 cells assessed as cell growth at 0.5 uM incubated for 48 hrs by sulforhodamine B assay relative to control; assay type: functional; details: HCT-116, 48 h, read-out: Activity
NCI-H522 = test: Growth inhibition of human NCI-H522 cells assessed as cell growth at 0.05 uM incubated for 48 hrs by sulforhodamine B assay relative to control; assay type: functional; details: NCI-H522, 48 h, read-out: Activity
SF-268 [8] = test: Growth inhibition of human SF268 cells assessed as cell growth at 0.05 uM incubated for 48 hrs by sulforhodamine B assay relative to control; assay type: functional; details: SF-268, 48 h, read-out: Activity
786-0 = test: Growth inhibition of human 786-0 cells assessed as cell growth at 0.05 uM incubated for 48 hrs by sulforhodamine B assay relative to control; assay type: functional; details: 786-0, 48 h, read-out: Activity
HOP-62 = test: Growth inhibition of human HOP62 cells assessed as cell growth at 0.005 uM incubated for 48 hrs by sulforhodamine B assay relative to control; assay type: functional; details: HOP-62, 48 h, read-out: Activity
ACHN = test: Growth inhibition of human ACHN cells assessed as cell growth at 50 uM incubated for 48 hrs by sulforhodamine B assay relative to control; assay type: functional; details: read-out: Activity
U-251 [9] = test: Growth inhibition of human U251 cells assessed as cell growth at 5 uM incubated for 48 hrs by sulforhodamine B assay relative to control; assay type: functional; details: U-251, 48 h, read-out: Activity
SK-MEL-2 [10] = test: Growth inhibition of human SK-MEL-2 cells assessed as cell growth at 50 uM incubated for 48 hrs by sulforhodamine B assay relative to control; assay type: functional; details: SK-MEL-2, 48 h, read-out: Activity
MOLT-4 = test: Growth inhibition of human MOLT4 cells assessed as cell growth at 0.05 uM incubated for 48 hrs by sulforhodamine B assay relative to control; assay type: functional; details: MOLT-4, 48 h, read-out: Activity
TK-10 = test: Growth inhibition of human TK10 cells assessed as cell growth at 0.005 uM incubated for 48 hrs by sulforhodamine B assay relative to control; assay type: functional; details: TK-10, 48 h, read-out: Activity
HOP-92 = test: Growth inhibition of human HOP92 cells assessed as cell growth at 5 uM incubated for 48 hrs by sulforhodamine B assay relative to control; assay type: functional; details: HOP-92, 48 h, read-out: Activity
SNB-19 = test: Growth inhibition of human SNB19 cells assessed as cell growth at 0.05 uM incubated for 48 hrs by sulforhodamine B assay relative to control; assay type: functional; details: SNB-19, 48 h, read-out: Activity
EKVX [11] = test: Growth inhibition of human EKVX cells assessed as cell growth at 0.05 uM incubated for 48 hrs by sulforhodamine B assay relative to control; assay type: functional; details: read-out: Activity
U-251 [12] = test: Growth inhibition of human U251 cells assessed as cell growth at 0.05 uM incubated for 48 hrs by sulforhodamine B assay relative to control; assay type: functional; details: U-251, 48 h, read-out: Activity
EKVX [13] = test: Growth inhibition of human EKVX cells assessed as cell growth at 30 uM incubated for 48 hrs by sulforhodamine B assay relative to control; assay type: functional; details: read-out: Activity
Homo sapiens = organism: Homo sapiens; test: Selectivity index, ratio of IC50 for human BRAF V600E mutant to IC50 for human c-RAF
[14] = biological target: Serine/threonine-protein kinase B-raf (Homo sapiens, UniProt P15056); test: Inhibition of human BRAF at 10 uM using MEK1 as substrate in presence of [33P]ATP by Hotspot assay relative to control
Chain of Serine/threonine-protein kinase B-raf (P15056 whole entry): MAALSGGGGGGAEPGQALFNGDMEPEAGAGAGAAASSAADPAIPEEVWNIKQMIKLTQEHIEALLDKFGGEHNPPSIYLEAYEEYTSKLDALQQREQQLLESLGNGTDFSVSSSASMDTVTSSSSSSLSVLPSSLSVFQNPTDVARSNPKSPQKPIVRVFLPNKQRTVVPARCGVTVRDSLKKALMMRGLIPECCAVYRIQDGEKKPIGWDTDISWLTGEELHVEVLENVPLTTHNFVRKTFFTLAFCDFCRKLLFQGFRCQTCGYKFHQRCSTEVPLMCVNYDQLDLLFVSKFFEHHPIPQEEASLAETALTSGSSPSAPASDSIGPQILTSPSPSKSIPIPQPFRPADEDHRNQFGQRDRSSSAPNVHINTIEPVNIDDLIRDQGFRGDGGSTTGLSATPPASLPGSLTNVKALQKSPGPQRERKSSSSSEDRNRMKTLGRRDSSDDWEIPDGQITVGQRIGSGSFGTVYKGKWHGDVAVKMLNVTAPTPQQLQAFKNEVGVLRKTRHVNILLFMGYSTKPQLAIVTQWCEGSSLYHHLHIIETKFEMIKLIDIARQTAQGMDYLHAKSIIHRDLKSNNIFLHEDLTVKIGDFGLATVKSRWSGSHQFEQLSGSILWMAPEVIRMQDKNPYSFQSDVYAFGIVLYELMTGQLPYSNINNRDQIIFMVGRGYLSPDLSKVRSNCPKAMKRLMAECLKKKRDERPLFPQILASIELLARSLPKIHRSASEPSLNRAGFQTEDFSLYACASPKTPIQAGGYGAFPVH

COc1cc2cc(Oc3ccc(NC(=O)Nc4cc(C(F)(F)F)cc(C(F)(F)F)c4)cc3)c(C)nc2cc1OC
growth at 1 µM (MDA-MB-468): 53% | growth at 10 µM (T47D): -21% | growth at 100 µM (K562 [1]): -61%

COc1cc2cc(Oc3ccc(NC(=O)Nc4cccc(C(F)(F)F)c4)cc3)c(C)nc2cc1OC
growth at 0.005 µM (SK-MEL-2 [2]): 102% | growth at 0.5 µM (SK-OV-3): 101% | growth at 0.005 µM (OVCAR-8 [3]): 101% | growth at 0.005 µM (OVCAR-5): 103% | growth at 0.005 µM (K562 [4]): 102% | growth at 0.005 µM (PC-3): 94% | growth at 0.5 µM (OVCAR-8 [5]): 96% | growth at 0.005 µM (SK-MEL-5): 96% | growth at 0.05 µM (A498): 106% | growth at 0.005 µM (SNB-75): 79% | growth at 50 µM (OVCAR-8 [6]): -90% | growth at 0.05 µM (NCI-H23): 99% | growth at 0.005 µM (A549): 98% | growth at 50 µM (SF-268 [7]): -32% | growth at 0.5 µM (HCT-116): 88% | growth at 0.05 µM (NCI-H522): 92% | growth at 0.05 µM (SF-268 [8]): 89% | growth at 0.05 µM (786-0): 82% | growth at 0.005 µM (HOP-62): 95% | growth at 50 µM (ACHN): -34% | growth at 5 µM (U-251 [9]): 5% | growth at 50 µM (SK-MEL-2 [10]): -87% | growth at 0.05 µM (MOLT-4): 98% | growth at 0.005 µM (TK-10): 92% | growth at 5 µM (HOP-92): -10% | growth at 0.05 µM (SNB-19): 91% | growth at 0.05 µM (EKVX [11]): 102% | growth at 0.05 µM (U-251 [12]): 99%

COc1cc2cc(Oc3ccc(NC(=O)Nc4ccc(Cl)c(C(F)(F)F)c4)cc3)c(C)nc2cc1OC
growth at 30 µM (EKVX [13]): -70% | Ratio IC50 (Homo sapiens): 2.6 | inhibition [14]: 74.2%

Reference: ChEMBL document CHEMBL3994622, “Design and synthesis of new RAF kinase-inhibiting antiproliferative quinoline derivatives. Part 2: Diarylurea derivatives” (Eur J Med Chem, 2017)
